# Literature values in patent US11229596B2, “Preservative free pharmaceutical ophthalmic compositions” (PHARMATHEN S.A., priority 2016, dated 2022).
# Structures can show the parent of a compound that is named as a salt. Where two headings read alike, the source gives them in different places.
# Experiments:
# intraocular pressure = details: in man
Solubility (in acetonitrile),Solubility (in ethanol),Solubility (in water),Solubility (in chloroform),Solubility (in cyclohexane),Solubility (in ether),Solubility (in methanol),Solubility (in propylene glycol),Structure (SMILES),Duration of pressure reduction (intraocular pressure),Start of reduction of the intraocular pressure after administration (intraocular pressure),Time to maximum effect on intraocular pressure (intraocular pressure)
very soluble,freely soluble,practically insoluble,,,,,,CC(C)OC(=O)CCC/C=C\C[C@@H]1[C@@H](CC[C@@H](O)CCc2ccccc2)[C@H](O)C[C@@H]1O [Latanoprost],at least 24 hours,three to four,eight to twelve
,soluble,soluble,sparingly soluble,insoluble,insoluble,soluble,sparingly soluble,CC(C)(C)NC[C@H](O)COc1nsnc1N1CCOCC1 [Timolol maleate],,,
